The text below walks through data of ChEMBL document CHEMBL5385926, “Production of Kinanthraquinone D with Antimalarial Activity by Heterologous Gene Expression and Biotransformation in Streptomyces lividans TK23” (J Nat Prod, 2024).

The test system of one data set is Staphylococcus aureus. The data set can be described thus: Antimicrobial activity against Staphylococcus aureus 209. It is filed as functional, organism-based.
Data set [1] in a line: Cytotoxicity against human HeLa cells. It counts as toxicity, cell-based.
The nature of data set [2]: Cytotoxicity against human HL-60 cells. It is filed as toxicity, cell-based.
Another data set has as its system Plasmodium falciparum. In words: Antimalarial activity against Plasmodium falciparum 3D7. It counts as functional, organism-based.

Each structure is given as a SMILES string. “And” between values parts separate entries of the source, which are not always exact repeats. Identical values can stand only once.

As for `COc1ccc2c(c1OC)C(=O)c1c(O)cc(/C=C(/C)CC(N)=O)c(O)c1C2=O`, the IC50 is > 30 µM and > 11.9 µg/mL in the data set with Staphylococcus aureus; > 30 µM and > 11.9 µg/mL in data set [1]; > 30 µM and > 11.9 µg/mL in data set [2]; 910 nM and 0.4 µg/mL with Plasmodium falciparum.
`COc1ccc2c(c1OC)C(=O)c1ccc(/C=C(/C)CC(=O)NCC(=O)O)c(O)c1C2=O`: the IC50 with Staphylococcus aureus was > 30 µM and > 13.2 µg/mL; in data set [1], > 30 µM and > 13.2 µg/mL; in data set [2], > 30 µM and > 13.2 µg/mL; with Plasmodium falciparum, > 30 µM and > 13.2 µg/mL.
As to `COc1ccc2c(c1OC)C(=O)c1ccc(/C=C(/C)CC(=O)O)c(O)c1C2=O`, the IC50 in the data set with Staphylococcus aureus is 18 µM and 6.9 µg/mL; in data set [1], > 30 µM and > 11.5 µg/mL; in data set [2] it was > 30 µM and > 11.5 µg/mL; with Plasmodium falciparum, 15 µM and 5.7 µg/mL.
As for `COc1ccc2c(c1OC)C(=O)c1ccc(/C=C(/C)CC(N)=O)c(O)c1C2=O`, the half-maximal inhibitory concentration (IC50) in the data set with Staphylococcus aureus is > 30 µM and > 11.4 µg/mL; in data set [1] it was > 30 µM and > 11.4 µg/mL; in data set [2], > 30 µM and > 11.4 µg/mL; in the data set with Plasmodium falciparum, 1.21 µM and 0.5 µg/mL.
